Patent US20140127705A1, “METHOD FOR SCREENING SUBSTANCES HAVING WEIGHT-REGULATING ACTION” (priority 2011, published 2014)

Test system: 3T3-L1 cells
Assay: Induction of adipocyte differentiation in 3T3-L1 cells, Oil Red O staining
Assay type: cell-based
Settings: 10 μM LS-102 added at induction of differentiation (IBMX, dexamethasone, insulin) and again at the medium change, DMSO control, microscope (FIG. 5)
Description: 3T3-L1 cells were cultured for 3 days after reaching confluence in DMEM (10% FBS, High Glucose). Differentiation was induced by adding 500 μM IBMX, 1 μM dexamethasone and 5 μg/ml of insulin. 10 μM LS-102 (synoviolin ubiquitination activity inhibitor) or DMSO were added at the same time. After culturing for 3 days, the medium was replaced with medium containing 4 μg/ml of insulin followed by the addition of 10 μM LS-102 or DMSO. After again culturing for 3 days, the medium was replaced with DMEM (10% FES, High Glucose) followed by additionally culturing for 3 days. With respect to siRNA, 200 pmol of siRNA Syno770 was introduced using Lipofectamine 2000 two days prior to inducing differentiation.
After washing the 3T3-L1 cells with PBS(−), the cells were fixed with 10% formalin. The cells were then washed with PBS(−) and transferred to 60% isopropanol. The cells were stained for 20 minutes with 18 mg/ml of Oil Red O/Isopropanol and then washed with 60% isopropanol and PBS(−) followed by observing with a microscope.

CCNCCN(CC)c1nc(Nc2ccc3ncoc3c2)nc(N[C@@H](C)C2CCCCC2)n1 [LI102]
number of differentiated adipocytes in comparison with the control: the number of differentiated adipocytes was lower in comparison with the control
